Assay results from PubChem BioAssay AID484 (The Scripps Research Institute Molecular Screening Center, 2006).
Activity calls are given as the source filed them. How the calls were made is not given here.

The compounds below were run against Sphingosine 1-phosphate receptor 3 (Homo sapiens) (UniProt Q99500) (assay: blockade of S1P-driven S1P3 signaling – cell-based, dose response (AID 484)). Settings: S1P3-expressing cells, antagonist inhibition of S1P response.
Chain of Sphingosine 1-phosphate receptor 3 (Homo sapiens) (Q99500 whole entry, looked up): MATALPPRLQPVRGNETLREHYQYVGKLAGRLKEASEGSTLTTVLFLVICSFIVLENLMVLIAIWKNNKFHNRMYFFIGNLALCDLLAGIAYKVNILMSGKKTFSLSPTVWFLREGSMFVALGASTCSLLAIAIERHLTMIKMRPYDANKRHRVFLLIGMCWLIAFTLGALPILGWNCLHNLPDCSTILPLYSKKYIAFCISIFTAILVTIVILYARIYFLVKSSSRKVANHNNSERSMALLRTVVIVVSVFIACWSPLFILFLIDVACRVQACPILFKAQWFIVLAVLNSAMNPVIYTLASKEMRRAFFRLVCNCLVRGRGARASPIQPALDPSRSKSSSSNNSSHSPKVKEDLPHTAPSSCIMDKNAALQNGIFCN

Row | SMILES | IC50
1 | Cc1ccc(S(=O)(=O)N2CC(=NO)C2)cc1 | > 49.8 µM (inactive)
2 | CC1(C)CC(=O)CC(=Nc2ccc(C(=O)O)cc2)C1 | > 49.8 µM (inactive)
3 | CC(=O)C1=C(C)Nc2ncnn2C1c1ccc(Cl)cc1 (stereo unspecified) | > 49.8 µM (inactive)
4 | O/C(=C\Sc1nnc(Cc2ccccc2)o1)c1ccc(Br)cc1 | > 49.8 µM (inactive)
5 | COC(=O)C1=C(N)Oc2cc(C)n(C)c(=O)c2C1c1ccc(Cl)cc1 (stereo unspecified) | > 49.8 µM (inactive)
6 | COC(=O)C1=C(N)Oc2cc(N(C)C)ccc2C1c1ccccc1OC (stereo unspecified) | > 16.6 µM (inactive)
7 | COc1cccc(N2C(=O)C(CC(=O)Nc3ccc(F)cc3)N(C3CCCCC3)C2=O)c1 (stereo unspecified) | > 49.8 µM (inactive)
8 | COc1ccc(OC)c(C2C(C(C)=O)=C(O)C(=O)N2CCC(=O)O)c1 (stereo unspecified) | > 49.8 µM (inactive)
9 | CN1CCN(C(=O)OC2c3nccnc3C(=O)N2c2ccc(Cl)cn2)CC1 (stereo unspecified) | > 49.8 µM (inactive)
10 | COc1ccc(CC2C(=O)NC(=O)N(c3ccccc3)C2=O)c(OC)c1 (stereo unspecified) | > 49.8 µM (inactive)
11 | N#CC1=C(N)Oc2cc3c(cc2C1c1ccc(Cl)cc1)OCO3 (stereo unspecified) | inactive
